Here are results for 9 compounds from patent EP4410284A1, “COMPOUND AND METHOD FOR THE TREATMENT OF ZELLWEGER SPECTRUM DISORDER” (Apteeus, priority 2023, dated 2024).

Data set [1] relates to GM16513 cells. Nature of the data set: Catalase import immunofluorescence, high-content screening (% importing cells). The format is cell-based, human. The following applies: GM16513 cells, 3 days.
The test system of data set [2] is PEX405 cells. The description is as above. The format is cell-based, human. As to conditions: PEX405 cells, 3 days.
Method: Primary fibroblasts were seeded at 500-700 cells per well in 384-well plates and grown at 37°C overnight. Cells were treated with test compounds or 0.1% DMSO for 3 days. After 3 days and a wash with PBS, cells were fixed with 4% paraformaldehyde (Electron Microscopy Sciences) in PBS for 20 minutes. After 3 washes with PBS, the cells were permeabilized and blocked with 0.3% Triton X-100, 1% BSA in PBS for 30 minutes at room temperature followed by 3 washes with 1% BSA in PBS. The cells were incubated with a rabbit Catalase polyclonal antibody (#12980 Cell signaling) overnight at 4°C. Following 3 washes with PBS containing 0.1% Tween-20, the cells were incubated for 1 h at room temperature with a conjugated goat anti-rabbit secondary antibody Alexa Fluor 647 (Ab150083-Abcam). The cells were then washed 3 times with PBS and Hoechst 33342 (H3570-ThermoFisher Scientific) + HCS Cellmask Blue (H32720 - ThermoFisher Scientific) staining was performed at 0.1 µg/ml and 0.4 µg/mL respectively for 30 minutes at room temperature. The cells were finally washed 3 times with PBS and fluorescent images were acquired using the INCell Analyzer 6000 imaging platform (GE Healthcare Life Sciences).
Images analysis was done using Columbus analysis software (PerkinElmer). DAPI channel was used to find nuclei (Hoechst 33342) and cytoplasm (HCS CellMask Blue) and border objects were removed. Cy5 channel (AlexaFluor 647) was used to find spots corresponding to peroxisomes which correctly import catalase. Cells were classified as importing or non-importing cells using a linear classifier method after training with images of wells containing Healthy cells and PEX1 deficient cells. The number of importing or non-importing cells was calculated. Finally, results were expressed as % of importing cells.
The cytotoxicity was assessed in parallel using a double nucleus staining with Hoechst 33342 and Propidium Iodide (PI).
The test system of data set [3] is PEX405 cells. The format is cell-based. As to conditions: 3 days, PI positive cells (dead cells).
Method: (§1) Images were acquired using the EnSight multimode plate reader (PerkinElmer) and analysis was done using Columbus analysis software (PerkinElmer). […] Then the total number of cells and the % of dead cells was calculated.
(§2) All HDAC inhibitors were tested at 1.3 and 10 µM for 3 days on GM16513 and PEX405 cells.
In data set [4] the test system is GM16513 cells. The format is cell-based. As to conditions: 3 days, PI positive cells (dead cells).
Method: as §1, §2

Like-named read-outs stand apart in the source and are kept apart here.

In the case of `CC(C)(CNC(=O)c1cccc(-c2noc(C(F)(F)F)n2)c1)c1coc(-c2ccccc2)n1` [TMP195], the “% Importing cells” value in data set [1] (1.3 µM) is 13%; in data set [1] (10 µM), 8%; in data set [2] (1.3 µM), 2%; in data set [2] (10 µM) it was 1%. Also, the “% PI+ cells” value in data set [3] (1.3 µM), in data set [3] (10 µM), in data set [4] (1.3 µM) and in data set [4] (10 µM) was 1% in each case.
With `O=C(NCC1(c2nc(-c3ccccc3)cs2)CCOCC1)c1cccc(-c2noc(C(F)(F)F)n2)c1` [TMP269], the “% Importing cells” value in data set [1] (1.3 µM) is on record as 11%; in data set [1] (10 µM), 7%; in data set [2] (1.3 µM), 3%; in data set [2] (10 µM), 3%. For the same compound, the “% PI+ cells” value in data set [3] (1.3 µM) amounted to 0%; in data set [3] (10 µM), 1%; in data set [4] (1.3 µM) it was 1%; in data set [4] (10 µM), 1%.
For `CC(=O)Nc1ccc(C(=O)Nc2ccccc2N)cc1` [Tacedinaline], the “% Importing cells” value worked out at 15% in data set [1] (1.3 µM), 18% in data set [1] (10 µM), 2% in data set [2] (1.3 µM) and 4% in data set [2] (10 µM). For the same compound, the “% PI+ cells” value in data set [3] (1.3 µM) stood at 1%; in data set [3] (10 µM), 1%; in data set [4] (1.3 µM), 1%; in data set [4] (10 µM), 2%.
On to `COc1cccc2c1c(O)c(C(=O)N(C)c1ccc(C(F)(F)F)cc1)c(=O)n2C` [Tasquinimod], for which the “% Importing cells” value in data set [1] (1.3 µM) amounted to 23%; in data set [1] (10 µM), 22%; in data set [2] (1.3 µM), 7%; in data set [2] (10 µM), 4%. Also, the “% PI+ cells” value in data set [3] (1.3 µM) is 0%; in data set [3] (10 µM), 0%; in data set [4] (1.3 µM), 1%; in data set [4] (10 µM), 1%.
Take `O=C(CCCCCCC(=O)Nc1ccc(CN[C@H](C(=O)OC2CCCC2)c2ccccc2)cc1)NO` [Tefinostat]: the “% Importing cells” value is 33% in data set [1] (1.3 µM), 91% in data set [1] (10 µM), 24% in data set [2] (1.3 µM) and 24% in data set [2] (10 µM). The “Max Efficacy (% Importing cells)” value in data set [1] (dose response with 6 concentrations) came to 97%. Besides, the 50% effective concentration (EC50) – broadly, the midpoint of the concentration-response curve – in data set [1] (dose response with 6 concentrations, read-out: EC50) amounted to 4 µM. The “% PI+ cells” value in data set [3] (1.3 µM) is 1%; in data set [3] (10 µM), 23%; in data set [4] (1.3 µM) it was 2%; in data set [4] (10 µM) it was 2%.
Regarding `CC(/C=C/C(=O)NO)=C\[C@@H](C)C(=O)c1ccc(N(C)C)cc1` [Trichostatin A], the “% Importing cells” value turned out to be 90% in data set [1] (1.3 µM), 76% in data set [1] (10 µM), 28% in data set [2] (1.3 µM) and 0% in data set [2] (10 µM). Besides, the “% PI+ cells” value turned out to be 24% in data set [3] (1.3 µM), 49% in data set [3] (10 µM), 18% in data set [4] (1.3 µM) and 30% in data set [4] (10 µM).
On to `O=C(CCCCCCC(=O)Nc1ccc([C@H]2O[C@@H](CSc3nc(-c4ccccc4)c(-c4ccccc4)o3)C[C@@H](c3ccc(CO)cc3)O2)cc1)NO` [Tubacin], for which the “% Importing cells” value was 39% in data set [1] (10 µM) and 5% in data set [2] (10 µM). Besides, the “% PI+ cells” value in data set [3] (10 µM) and in data set [4] (10 µM) was 4% in each case.
As to `CN1CCc2c(c3ccccc3n2Cc2ccc(C(=O)NO)cc2)C1.Cl` [Tubastatin A (Hydrochloride), Tubastatin A], the “% Importing cells” value was found to be 12% in data set [1] (1.3 µM), 37% in data set [1] (10 µM), 3% in data set [2] (1.3 µM) and 6% in data set [2] (10 µM). Moreover, the “% PI+ cells” value in data set [3] (1.3 µM) turned out to be 1%; in data set [3] (10 µM), 1%; in data set [4] (1.3 µM) it was 2%; in data set [4] (10 µM) it was 1%.
For the compound `CN1CCc2c(c3ccccc3n2Cc2ccc(C(=O)NO)cc2)C1` [Tubastatin A], the “% Importing cells” value in data set [1] (1.3 µM) came to 26%; in data set [1] (10 µM), 32%; in data set [2] (1.3 µM), 5%; in data set [2] (10 µM), 6%. The “% PI+ cells” value in data set [3] (1.3 µM), in data set [3] (10 µM), in data set [4] (1.3 µM) and in data set [4] (10 µM) was 1% each time.
